From US20240376091A1, “THIADIAZOLEAMIDE DERIVATIVES AND THEIR APPLICATIONS” (ZHEJIANG UNIVERSITY, priority 2021, published 2024)

Biological target: T1, AR (Homo sapiens, UniProt P10275, T878A)
T1 construct: into the androgen-dependent PCa cells (LNCaP); endogenous in cells; host or cells: LNCaP-ARR2PB-eGFP
T1 sequence (P10275 1-920 T878A): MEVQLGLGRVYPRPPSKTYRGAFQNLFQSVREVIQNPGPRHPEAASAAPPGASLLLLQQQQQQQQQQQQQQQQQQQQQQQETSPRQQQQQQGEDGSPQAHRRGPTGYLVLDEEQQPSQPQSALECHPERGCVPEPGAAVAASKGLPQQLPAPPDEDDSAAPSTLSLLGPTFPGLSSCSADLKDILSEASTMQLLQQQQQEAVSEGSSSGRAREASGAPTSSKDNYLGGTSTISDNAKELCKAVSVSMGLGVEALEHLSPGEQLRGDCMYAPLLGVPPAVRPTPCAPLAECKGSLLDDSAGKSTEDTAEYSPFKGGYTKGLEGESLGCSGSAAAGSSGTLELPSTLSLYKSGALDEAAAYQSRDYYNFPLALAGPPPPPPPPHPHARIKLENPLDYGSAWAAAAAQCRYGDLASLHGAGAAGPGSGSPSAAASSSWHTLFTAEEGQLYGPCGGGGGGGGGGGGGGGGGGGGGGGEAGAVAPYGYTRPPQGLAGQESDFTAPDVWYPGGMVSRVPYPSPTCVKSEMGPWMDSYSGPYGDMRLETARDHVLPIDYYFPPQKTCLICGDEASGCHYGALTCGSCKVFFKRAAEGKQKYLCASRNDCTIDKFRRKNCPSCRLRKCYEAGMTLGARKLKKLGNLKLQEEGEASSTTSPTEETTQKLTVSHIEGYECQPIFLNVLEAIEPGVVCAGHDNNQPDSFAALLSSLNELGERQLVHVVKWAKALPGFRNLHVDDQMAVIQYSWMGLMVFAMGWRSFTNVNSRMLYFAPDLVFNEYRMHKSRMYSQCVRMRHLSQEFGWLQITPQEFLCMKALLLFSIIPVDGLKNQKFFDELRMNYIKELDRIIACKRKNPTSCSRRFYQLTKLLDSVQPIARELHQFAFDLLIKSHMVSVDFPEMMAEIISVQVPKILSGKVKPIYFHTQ
Assay: AR transcriptional activity, LNCaP-ARR2PB-eGFP reporter cells
Format: cell-based
Conditions: read-out: IC50 AR transcriptional activities
Excerpt: Detection principles: We conducted a stable transfection of promoter ARR2PB known for its strong AR responsiveness, into the androgen-dependent PCa cells (LNCaP). The expression of enhanced green fluorescent protein (eGFP) is depending on the degree of activation of AR. Therefore, LNCaP-ARR2PB-eGFP cell line could quantitatively determine the AR antagonistic activities of the compounds by evaluating the expression of eGFP.

Cc1oc(C(=O)Nc2nc(CC(C)(O)C(F)(F)F)ns2)cc1-c1cccc(C(F)(F)F)c1 (centres unmarked) [Compound F-13, 5-Methyl-N-(3-(3,3,3-trifluoro-2-hydroxy-2-methylpropyl)-1,2,4-thiadiazol-5-yl)-4-(3-(tri-fluoromethyl)phenyl)furan-2-carboxamide]
IC50: 31.5 µM

Cc1oc(-c2cccc(C#N)c2)cc1C(=O)Nc1nc(CC(C)N2CCN(C)CC2)ns1 (centres unmarked) [Compound A-56, 5-(3-Cyanophenyl)-2-methyl-N-(3-(2-(4-methylpiperazin-1-yl)propyl)-1,2,4-thiadiazol-5-yl)furan-3-carboxamide]
IC50: 0.84 µM

CC(=O)Cc1nsc(NC(=O)c2cc(-c3cccc(OC(F)F)c3)c(C)o2)n1 [Compound F-5, 4-(3-(Difluoromethoxy)phenyl)-5-methyl-N-(3-(2-oxopropyl)-1,2,4-thiadiazol-5-yl)furan-2-carboxamide]
IC50: 12.6 µM

CC(Cc1nsc(NC(=O)c2coc(-c3cccc(OC(F)F)c3)c2)n1)N1CCN(C)CC1 (centres unmarked) [Compound B-19, 5-(3-(Difluoromethoxy)phenyl)-N-(3-(2-(4-methylpiperazin-1-yl)propyl)-1,2,4-thiadiazol-5-yl)furan-3-carboxamide]
IC50: 59.3 µM

Cc1sc(-c2cccc(OC(F)F)c2)cc1C(=O)Nc1nc(CN2CCN(C)CC2)ns1 [Compound C-58, 5-(3-(Difluoromethoxy)phenyl)-2-methyl-N-(3-((4-methylpiperazin-1-yl)methyl)-1,2,4-thiadiazol-5-yl)thiophene-3-carboxamide]
IC50: 9.79 µM

Cc1oc(C(=O)Nc2nc(CC(C)O)ns2)cc1-c1cccc(C(F)(F)F)c1 (centres unmarked) [Compound F-11, N-(3-(2-hydroxypropyl)-1,2,4-thiadiazol-5-yl)-5-methyl-4-(3-(trifluoromethyl)phenyl) furan-2-carboxamide]
IC50: 22.3 µM

CC(Cc1nsc(NC(=O)c2cc(-c3cccc(OC(F)F)c3)co2)n1)N1CCN(C)CC1 (centres unmarked) [Compound G-10, 4-(3-(Difluoromethoxy)phenyl)-N-(3-(2-(4-methylpiperazin-1-yl)propyl)-1,2,4-thiadiazol-5-yl)furan-2-carboxamide]
IC50: 15.3 µM

CCN(CC)C(C)Cc1nsc(NC(=O)c2cc(-c3cccc(C(F)(F)F)c3)oc2C)n1 (centres unmarked) [Compound A-39, N-(3-(2-(diethylamino)propyl)-1,2,4-thiadiazol-5-yl)-2-methyl-5-(3-(trifluoromethyl)phenyl)furan-3-carboxamide]
IC50: 0.12 µM

CC(=O)Cc1nsc(NC(=O)c2cc(-c3cccc(C(F)(F)F)c3)c(C)o2)n1 [Compound F-1, 5-Methyl-N-(3-(2-oxopropyl)-1,2,4-thiadiazol-5-yl)-4-(3-(trifluoromethyl)phenyl)furan-2-carboxamide]
IC50: 28.1 µM

CC(Cc1nsc(NC(=O)c2coc(-c3cccc(OC(F)(F)F)c3)c2)n1)N1CCOCC1 (centres unmarked) [Compound B-16, N-(3-(2-morpholinopropyl)-1,2,4-thiadiazol-5-yl)-5-(3-(trifluoromethoxy)phenyl)furan-3-carboxamide]
IC50: 35.7 µM

O=C(Nc1nc(CCl)ns1)c1cc(-c2cccc(C(F)(F)F)c2)oc1C(F)(F)F [Compound E-32, N-(3-(chloromethyl)-1,2,4-thiadiazol-5-yl)-2-(trifluoromethyl)-5-(3-(trifluoromethyl)phenyl)furan-3-carboxamide]
IC50: 1.32 µM

Cc1oc(C(=O)Nc2nc(CC(C)N3CCN(C)CC3)ns2)cc1-c1cccc(OC(F)F)c1 (centres unmarked) [Compound F-10, 4-(3-(Difluoromethoxy)phenyl)-5-methyl-N-(3-(2-(4-methylpiperazin-1-yl)propyl)-1,2,4-thiadiazol-5-yl)furan-2-carboxamide]
IC50: 27.1 µM

Cc1oc(-c2cccc(C(F)(F)F)c2)cc1C(=O)Nc1nc(CC(C)N2CCOCC2)ns1 (centres unmarked) [Compound A-42, 2-Methyl-N-(3-(2-morpholinopropyl)-1,2,4-thiadiazol-5-yl)-5-(3-(trifluoromethyl)phenyl) furan-3-carboxamide]
IC50: 0.36 µM

CC(F)(F)Cc1nsc(NC(=O)c2coc(-c3cccc(C(F)(F)F)c3)c2)n1 [Compound B-35, N-(3-(2,2-difluoropropyl)-1,2,4-thiadiazol-5-yl)-5-(3-(trifluoromethyl)phenyl)furan-3-carboxamide]
IC50: 14.5 µM

CC(Cc1nsc(NC(=O)c2cc(-c3cccc(C(F)(F)F)c3)co2)n1)N1CCCC1 (centres unmarked) [Compound G-6, N-(3-(2-(pyrrolidin-1-yl)propyl)-1,2,4-thiadiazol-5-yl)-4-(3-(trifluoromethyl)phenyl) furan-2-carboxamide]
IC50: 13.9 µM

O=C(Nc1nc(CCl)ns1)c1csc(-c2cccc(C(F)(F)F)c2)c1 [Compound D-40, N-(3-(chloromethyl)-1,2,4-thiadiazol-5-yl)-5-(3-(trifluoromethyl)phenyl)thiophene-3-carboxamide]
IC50: 21.5 µM

CC(Cc1nsc(NC(=O)c2cc(-c3cccc(OC(F)(F)F)c3)oc2C(F)(F)F)n1)N1CCOCC1 (centres unmarked) [Compound E-10, N-(3-(2-morpholinopropyl)-1,2,4-thiadiazol-5-yl)-5-(3-(trifluoromethoxy)phenyl)-2-(trifluoromethyl)furan-3-carboxamide]
IC50: 0.99 µM

CC(Cc1nsc(NC(=O)c2cc(-c3cccc(C#N)c3)oc2C(F)(F)F)n1)N1CCOCC1 (centres unmarked) [Compound E-8, 5-(3-Cyanophenyl)-N-(3-(2-morpholinopropyl)-1,2,4-thiadiazol-5-yl)-2-(trifluoromethyl)furan-3-carboxamide]
IC50: 7.54 µM

Cc1sc(-c2cccc(OC(F)(F)F)c2)cc1C(=O)Nc1nc(CN2CCCC2)ns1 [Compound C-53, 2-Methyl-N-(3-(pyrrolidin-1-ylmethyl)-1,2,4-thiadiazol-5-yl)-5-(3-(trifluoromethoxy)phenyl)thiophene-3-carboxamide]
IC50: 14.8 µM

CC(Cc1nsc(NC(=O)c2coc(-c3cccc(C(F)(F)F)c3)c2)n1)N(C)C (centres unmarked) [Compound B-6, N-(3-(2-(dimethylamino)propyl)-1,2,4-thiadiazol-5-yl)-5-(3-(trifluoromethyl)phenyl) furan-3-carboxamide]
IC50: 11.8 µM

COC(=O)c1cccc(-c2cc(C(=O)Nc3nc(CC(C)=O)ns3)c(C)o2)c1 [Compound A-30, Methyl 3-(5-methyl-4-((3-(2-oxopropyl)-1,2,4-thiadiazol-5-yl)carbamoyl)furan-2-yl)benzoate]
IC50: 5.19 µM

Cc1sc(-c2cccc(OC(F)F)c2)cc1C(=O)Nc1nc(CC(C)N2CCN(C)CC2)ns1 (centres unmarked) [Compound C-19, 5-(3-(Difluoromethoxy)phenyl)-2-methyl-N-(3-(2-(4-methylpiperazin-1-yl)propyl)-1,2,4-thiadiazol-5-yl)thiophene-3-carboxamide]
IC50: 15.4 µM

CC(=O)Cc1nsc(NC(=O)c2cc(-c3cccnc3)oc2C)n1 [Compound A-31, 2-Methyl-N-(3-(2-oxopropyl)-1,2,4-thiadiazol-5-yl)-5-(pyridin-3-yl)furan-3-carboxamide]
IC50: 6.33 µM

CC(=O)Cc1nsc(NC(=O)c2cc(-c3cccc(OC(C)=O)c3)oc2C)n1 [Compound A-27, 3-(5-Methyl-4-((3-(2-oxopropyl)-1,2,4-thiadiazol-5-yl)carbamoyl)furan-2-yl)phenyl acetate]
IC50: 5.5 µM

O=C(Nc1nc(CN2CCOCC2)ns1)c1csc(-c2cccc(OC(F)F)c2)c1 [Compound D-57, 5-(3-(Difluoromethoxy)phenyl)-N-(3-(morpholinomethyl)-1,2,4-thiadiazol-5-yl)thiophene-3-carboxamide]
IC50: 15 µM

Cc1oc(-c2cccc(C(F)(F)F)c2)cc1C(=O)Nc1nc(CCl)ns1 [Compound A-105, N-(3-(chloromethyl)-1,2,4-thiadiazol-5-yl)-2-methyl-5-(3-(trifluoromethyl)phenyl)furan-3-carboxamide]
IC50: 22.9 µM

CN1CCN(Cc2nsc(NC(=O)c3cc(-c4cccc(OC(F)F)c4)co3)n2)CC1 [Compound G-28, 4-(3-(Difluoromethoxy)phenyl)-N-(3-((4-methylpiperazin-1-yl)methyl)-1,2,4-thiadiazol-5-yl)furan-2-carboxamide]
IC50: 39.2 µM

Cc1oc(C(=O)Nc2nc(CC(C)N3CCCCC3)ns2)cc1-c1cccc(C#N)c1 (centres unmarked) [Compound F-7, 4-(3-Cyanophenyl)-5-methyl-N-(3-(2-(piperidin-1-yl)propyl)-1,2,4-thiadiazol-5-yl)furan-2-carboxamide]
IC50: 14 µM

CCN(CC)Cc1nsc(NC(=O)c2cc(-c3cccc(C(F)(F)F)c3)oc2C)n1 [Compound A-107, N-(3-((diethylamino)methyl)-1,2,4-thiadiazol-5-yl)-2-methyl-5-(3-(trifluoromethyl)phenyl)furan-3-carboxamide]
IC50: 1.77 µM
